{"source": "PubChem BioAssay (NCI)", "assay_in_all_cases": "NCI anticancer screen, dose series, 48 h", "key": {"NCI-H522 lung": {"tested_on": "NCI-H522 lung"}, "MALME-3M melanoma": {"tested_on": "MALME-3M melanoma"}, "UACC-62 melanoma": {"tested_on": "UACC-62 melanoma"}, "T-47D breast": {"tested_on": "T-47D breast"}, "MDA-MB-231 breast": {"tested_on": "MDA-MB-231 breast"}, "HOP-62 NSCLC": {"tested_on": "HOP-62 NSCLC"}, "HCT-15 colon": {"tested_on": "HCT-15 colon"}, "A498 renal": {"tested_on": "A498 renal"}, "SK-OV-3 ovarian": {"tested_on": "SK-OV-3 ovarian"}, "SW-620 colon": {"tested_on": "SW-620 colon"}, "HL-60(TB) leukemia": {"tested_on": "HL-60(TB) leukemia"}, "NCI/ADR-RES ovarian": {"tested_on": "NCI/ADR-RES ovarian"}, "CCRF-CEM leukemia": {"tested_on": "CCRF-CEM leukemia"}, "UACC-257 melanoma": {"tested_on": "UACC-257 melanoma"}, "SN12C renal": {"tested_on": "SN12C renal"}, "ACHN renal": {"tested_on": "ACHN renal"}, "OVCAR-5 ovarian": {"tested_on": "OVCAR-5 ovarian"}, "RPMI-8226 leukemia": {"tested_on": "RPMI-8226 leukemia"}, "786-0 renal": {"tested_on": "786-0 renal"}, "SF-268 CNS": {"tested_on": "SF-268 CNS"}, "HCC-2998 colon": {"tested_on": "HCC-2998 colon"}, "A549 NSCLC": {"tested_on": "A549 NSCLC"}, "SNB-19 CNS": {"tested_on": "SNB-19 CNS"}, "NCI-H460 lung": {"tested_on": "NCI-H460 lung"}, "MOLT-4 leukemia": {"tested_on": "MOLT-4 leukemia"}, "RXF 393 renal": {"tested_on": "RXF 393 renal"}, "KM12 colon": {"tested_on": "KM12 colon"}, "HCT-116 colon": {"tested_on": "HCT-116 colon"}, "SK-MEL-2 melanoma": {"tested_on": "SK-MEL-2 melanoma"}}, "note": "“And” between values parts separate entries of the source, which are not always exact repeats. Equal values may be shown once.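 Test compounds were applied to cells in 96-well plates for 48 hours at 5 doses. At the GI50, growth is halved. TGI denotes the concentration required for complete inhibition of growth.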", "data": [{"smiles": "CN(C)C/C=C/C(=O)Nc1cc2c(Nc3ccc(F)c(Cl)c3)ncnc2cc1O[C@H]1CCOC1", "values": [{"measurement": "GI50", "setting": "NCI-H522 lung", "result": "18.9 nM and 5.32 nM"}, {"measurement": "TGI", "setting": "NCI-H522 lung", "result": "1150 nM and 2740 nM"}, {"measurement": "GI50", "setting": "MALME-3M melanoma", "result": "2100 nM and 1220 nM"}, {"measurement": "TGI", "setting": "MALME-3M melanoma", "result": "4160 nM and 3950 nM"}, {"measurement": "GI50", "setting": "UACC-62 melanoma", "result": "2390 nM and 3280 nM"}, {"measurement": "TGI", "setting": "UACC-62 melanoma", "result": "7490 nM and > 10000 nM"}, {"measurement": "TGI", "setting": "T-47D breast", "result": "15900 nM and > 10000 nM"}, {"measurement": "GI50", "setting": "MDA-MB-231 breast", "result": "1200 nM and 806 nM"}, {"measurement": "TGI", "setting": "MDA-MB-231 breast", "result": "7060 nM and 4750 nM"}, {"measurement": "GI50", "setting": "HOP-62 NSCLC", "result": "2490 nM and 3380 nM"}, {"measurement": "TGI", "setting": "HOP-62 NSCLC", "result": "6860 nM and > 10000 nM"}, {"measurement": "GI50", "setting": "HCT-15 colon", "result": "1590 nM and 1330 nM"}, {"measurement": "TGI", "setting": "HCT-15 colon", "result": "12100 nM and > 9470 nM"}, {"measurement": "GI50", "setting": "A498 renal", "result": "155 nM and 106 nM"}, {"measurement": "TGI", "setting": "A498 renal", "result": "2550 nM and 2300 nM"}, {"measurement": "GI50", "setting": "SK-OV-3 ovarian", "result": "< 10 nM and 1.85 nM"}, {"measurement": "TGI", "setting": "SK-OV-3 ovarian", "result": "322 nM and 327 nM"}, {"measurement": "GI50", "setting": "SW-620 colon", "result": "1380 nM and 1500 nM"}, {"measurement": "TGI", "setting": "SW-620 colon", "result": "4630 nM and > 7890 nM"}, {"measurement": "GI50", "setting": "HL-60(TB) leukemia", "result": "1450 nM and 599 nM"}, {"measurement": "TGI", "setting": "HL-60(TB) leukemia", "result": "5030 nM and 3750 nM"}, {"measurement": "GI50", "setting": "NCI/ADR-RES ovarian", "result": "2270 nM and 1920 nM"}, {"measurement": "TGI", "setting": "NCI/ADR-RES ovarian", "result": "14800 nM and > 10000 nM"}, {"measurement": "GI50", "setting": "CCRF-CEM leukemia", "result": "1790 nM and 1530 nM"}, {"measurement": "TGI", "setting": "CCRF-CEM leukemia", "result": "9170 nM and > 7560 nM"}, {"measurement": "GI50", "setting": "UACC-257 melanoma", "result": "1460 nM and 3340 nM"}, {"measurement": "TGI", "setting": "UACC-257 melanoma", "result": "3090 nM and > 10000 nM"}, {"measurement": "GI50", "setting": "SN12C renal", "result": "1460 nM and 576 nM"}, {"measurement": "TGI", "setting": "SN12C renal", "result": "14800 nM and > 10000 nM"}, {"measurement": "GI50", "setting": "ACHN renal", "result": "< 10 nM and 2.52 nM"}, {"measurement": "TGI", "setting": "ACHN renal", "result": "13100 nM and > 10000 nM"}, {"measurement": "GI50", "setting": "OVCAR-5 ovarian", "result": "843 nM and 345 nM"}, {"measurement": "TGI", "setting": "OVCAR-5 ovarian", "result": "13300 nM and > 10000 nM"}, {"measurement": "GI50", "setting": "RPMI-8226 leukemia", "result": "1760 nM and 2140 nM"}, {"measurement": "TGI", "setting": "RPMI-8226 leukemia", "result": "5390 nM and > 6560 nM"}, {"measurement": "GI50", "setting": "786-0 renal", "result": "2300 nM and 1790 nM"}, {"measurement": "TGI", "setting": "786-0 renal", "result": "13900 nM and > 10000 nM"}, {"measurement": "GI50", "setting": "SF-268 CNS", "result": "2030 nM and 1820 nM"}, {"measurement": "TGI", "setting": "SF-268 CNS", "result": "8580 nM and > 10000 nM"}, {"measurement": "GI50", "setting": "HCC-2998 colon", "result": "1140 nM and 1580 nM"}, {"measurement": "TGI", "setting": "HCC-2998 colon", "result": "3140 nM and > 9220 nM"}, {"measurement": "GI50", "setting": "A549 NSCLC", "result": "1480 nM and 1600 nM"}, {"measurement": "TGI", "setting": "A549 NSCLC", "result": "7550 nM and > 10000 nM"}, {"measurement": "GI50", "setting": "SNB-19 CNS", "result": "2760 nM and 2420 nM"}, {"measurement": "TGI", "setting": "SNB-19 CNS", "result": "15700 nM and > 10000 nM"}, {"measurement": "GI50", "setting": "NCI-H460 lung", "result": "2870 nM and 3460 nM"}, {"measurement": "TGI", "setting": "NCI-H460 lung", "result": "11700 nM and > 10000 nM"}, {"measurement": "GI50", "setting": "MOLT-4 leukemia", "result": "2430 nM and 1450 nM"}, {"measurement": "TGI", "setting": "MOLT-4 leukemia", "result": "11300 nM and 7240 nM"}, {"measurement": "GI50", "setting": "RXF 393 renal", "result": "1170 nM and 514 nM"}, {"measurement": "TGI", "setting": "RXF 393 renal", "result": "6790 nM and 4130 nM"}, {"measurement": "GI50", "setting": "KM12 colon", "result": "1250 nM and 1990 nM"}, {"measurement": "TGI", "setting": "KM12 colon", "result": "11300 nM and > 10000 nM"}, {"measurement": "GI50", "setting": "HCT-116 colon", "result": "448 nM and 679 nM"}, {"measurement": "TGI", "setting": "HCT-116 colon", "result": "1930 nM and > 5870 nM"}, {"measurement": "GI50", "setting": "SK-MEL-2 melanoma", "result": "1380 nM and 1510 nM"}, {"measurement": "TGI", "setting": "SK-MEL-2 melanoma", "result": "2930 nM and 4130 nM"}]}]}
